According to patent US11629171B2, “Beta-hairpin peptidomimetics” (POLYPHOR AG, priority 2017, dated 2023):
Values after ≈ are worked out from the molar mass of the structure shown. Where a SMILES comes first, the peptide text is derived from it. Bridges are numbered along the chain shown (N, C = ends). Roman numbers before positions name the chains, in order. [ ]: non-standard residue; d: D form. Tle = CC(C)(C)[C@H](N)C(=O)O; Hiv = CC(C)[C@H](O)C(=O)O; dDab = NCC[C@@H](N)C(=O)O; hSer = N[C@@H](CCO)C(=O)O; Dab = NCC[C@H](N)C(=O)O; Dap = NC[C@H](N)C(=O)O

Columns and labels:
Type in all cases: cell-based
[1] = test system: Enterobacter cloacae 848840; settings: 848840
Summary of the method: (§1)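 MIC in μg/mL, read as no visible growth after 18-20 hours at 35° C. Peptides were serially diluted two-fold in MH-II broth plus P-80 (0.002% final, v/v) and inoculated at about 10^6 CFU/mL following the CLSI broth microdilution standard.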

[2] = test system: Acinetobacter baumannii 872842; settings: 872842
Summary of the method: as §1

[3] = test system: Escherichia coli ATCC 25922; settings: ATCC 25922
Summary of the method: as §1

Escherichia coli 926415 = settings: 926415
Summary of the method: as §1

[4] = test system: Klebsiella pneumoniae SSI #3010; settings: SSI #3010
Summary of the method: as §1

[5] = test system: Pseudomonas aeruginosa ATCC 27853; settings: ATCC 27853
Summary of the method: as §1

[6] = test system: Acinetobacter baumannii DSM 30008; settings: DSM 30008
Summary of the method: as §1

[7] = test system: Klebsiella pneumoniae 968733; settings: 968733
Summary of the method: as §1

[8] = test system: human red blood cells (hRBC); experiment: Hemolysis; settings: red cells of human, 1 h, 200
Summary of the method: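 Hemoglobin release from PBS-washed hRBC at 20% (v/v), incubated 1 h at 37° C with peptides at 200 μg/mL, is measured at 540 nm. Values are blank corrected and given as a fraction of Triton X-100 lysis × 100%.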

| SMILES | MIC [1] [µg/mL] | MIC [2] [µg/mL] | MIC [3] [µg/mL] | MIC (Escherichia coli 926415) [µg/mL] | MIC [4] [µg/mL] | MIC [5] [µg/mL] | MIC [6] [µg/mL] | MIC [7] [µg/mL] | Hemolysis at 200 μg/mL [8] [%] |
| --- | --- | --- | --- | --- | --- | --- | --- | --- | --- |
| CC(=O)N[C@H](C(=O)N[C@H]1CSSC[C@@H](C(=O)N[C@@H](CO)C(N)=O)NC(=O)[C@H](C(C)C)NC(=O)[C@H](CCC(=O)O)NC(=O)[C@H](Cc2c[nH]c3ccccc23)NC(=O)[C@H](CCO)NC(=O)[C@@H](CCN)NC(=O)[C@H](CCC(=O)N[C@@H](CCN)C(=O)N[C@H](C(=O)N[C@@H](CN)C(=O)N[C@H]2CCNC(=O)[C@H]([C@@H](C)O)NC(=O)[C@H](CCN)NC(=O)[C@H](CCN)NC(=O)[C@H](CC(C)C)NC(=O)[C@@H](CC(C)C)NC(=O)[C@H](CCN)NC2=O)[C@@H](C)O)NC(=O)[C@H](CCN)NC(=O)[C@H](Cc2ccc(O)cc2)NC1=O)C(C)C [Ex. 155] (I: Ac-VCY[Dab]E[dDab][hSer]WEVCS-NH2 / II: [Dab]T[Dap][Dab][Dab][dL]L[Dab][Dab]T; disulfide I:2-I:11; amide I:5-II:N; lactam II:4-II:C) | 0.125 (≈ 0.0509 µM) | 0.125 (≈ 0.0509 µM) | 0.0625 (≈ 0.0255 µM) | 0.5 (≈ 0.204 µM) | 0.125 (≈ 0.0509 µM) | 0.125 (≈ 0.0509 µM) | 0.0625 (≈ 0.0255 µM) | 0.5 (≈ 0.204 µM) | 1 |
| CC(=O)N[C@H](C(=O)N[C@H]1CSSC[C@@H](C(=O)N[C@@H](CO)C(N)=O)NC(=O)[C@H](C(C)(C)C)NC(=O)[C@H](CCC(=O)O)NC(=O)[C@H](Cc2c[nH]c3ccccc23)NC(=O)[C@H](CCO)NC(=O)[C@@H](CCN)NC(=O)[C@H](CCC(=O)N[C@@H](CCN)C(=O)N[C@H](C(=O)N[C@@H](CN)C(=O)N[C@H]2CCNC(=O)[C@H]([C@@H](C)O)NC(=O)[C@H](CCN)NC(=O)[C@H](CCN)NC(=O)[C@H](CC(C)C)NC(=O)[C@@H](CC(C)C)NC(=O)[C@H](CCN)NC2=O)[C@@H](C)O)NC(=O)[C@H](CCN)NC(=O)[C@H](Cc2ccc(O)cc2)NC1=O)C(C)C [Ex. 156] (I: Ac-VCY[Dab]E[dDab][hSer]WE[Tle]CS-NH2 / II: [Dab]T[Dap][Dab][Dab][dL]L[Dab][Dab]T; disulfide I:2-I:11; amide I:5-II:N; lactam II:4-II:C) | 0.125 (≈ 0.0506 µM) | 0.125 (≈ 0.0506 µM) | 0.03125 (≈ 0.0127 µM) | 0.125 (≈ 0.0506 µM) | 0.125 (≈ 0.0506 µM) | 0.125 (≈ 0.0506 µM) | 0.0625 (≈ 0.0253 µM) | 0.25 (≈ 0.101 µM) | <1 |
| CC(C)C[C@@H]1NC(=O)[C@@H](CC(C)C)NC(=O)[C@H](CCN)NC(=O)[C@@H](NC(=O)[C@H](CN)NC(=O)[C@@H](NC(=O)[C@H](CCN)NC(=O)CC[C@@H]2NC(=O)[C@H](CCN)NC(=O)[C@H](Cc3ccc(O)cc3)NC(=O)[C@@H](NC(=O)[C@@H](O)C(C)C)CSSC[C@@H](C(=O)N[C@@H](CO)C(N)=O)NC(=O)[C@H](C(C)C)NC(=O)[C@H](CCC(=O)O)NC(=O)[C@H](Cc3c[nH]c4ccccc34)NC(=O)[C@H](CCO)NC(=O)[C@@H](CCN)NC2=O)[C@@H](C)O)CCNC(=O)[C@H]([C@@H](C)O)NC(=O)[C@H](CCN)NC(=O)[C@H](CCN)NC1=O [Ex. 157] (I: H-[Hiv]CY[Dab]E[dDab][hSer]WEVCS-NH2 / II: [Dab]T[Dap][Dab][Dab][dL]L[Dab][Dab]T; disulfide I:2-I:11; amide I:5-II:N; lactam II:4-II:C) | 0.25 (≈ 0.104 µM) | 0.5 (≈ 0.207 µM) | 0.0625 (≈ 0.0259 µM) | 1 (≈ 0.414 µM) | 0.125 (≈ 0.0518 µM) | 0.25 (≈ 0.104 µM) | 0.125 (≈ 0.0518 µM) | 1 (≈ 0.414 µM) | <1 |
